From patent US9598463B2, “Mucin hypersecretion inhibitors and methods of use” (BIOMARCK PHARMACEUTICALS, LTD., priority 2005, dated 2017) come the findings set out here.

Marks after values point to notes of the source that are not given here.

A short description of series [1]: Stability of test peptides in human CF mucus (LC/MS/MS, first order half-life). Format: in vitro ADME. Conditions: cerebrospinal or other body fluid, pH 7, human CF mucus. As to the method: (§1) Various test peptides in human plasma, human BALF, and CF patient mucus were analyzed to determine the susceptability of the test peptide to proteolysis in the biological fluids. […] The samples were analyzed either on the same day as received or stored at −20° C. and analyzed within the following two days.
The frozen mucus (sputum) from a CF patient was thawed and mixed with 2 volumes of 75 mM sodium acetate buffer, pH 7 with the help of a glass tissue grinder, centrifuged at 10,000×g for 10 min at 4-8° C. The pellet was re-suspended in 1 volume of the acetate buffer and centrifuged. The two supernatants were combined and used as follows. The supernatant (450 μL) was spiked with 50 μL, of 0.5 mg/mL solution of the peptide in 75 mM sodium acetate buffer at pH 7.0 and processed and analyzed as described above.
(§2) All samples were analyzed using LC/MS/MS (MDS/SCIEX, API 4000 Model). Chromatography was performed using a Phenomenex Luna C18 column, while mass spectrometry was performed using positive ion electrospray ionization.
(§3) Calibration standards were analyzed by LCMS at concentrations of 0.100 μg/mL, 1.00 μg/mL, 10.0 μg/mL, and 100 μg/mL for each peptide, with the exception of the calibration standards for peptides myr-PEPTIDE 106, PEPTIDE 106, PEPTIDE 106-NH2, PEPTIDE 106, and cyclic peptide, cyc-PEPTIDE 106, in human mucus, which were analyzed at concentrations of 0.100 μg/mL, 1.00 μg/mL, 10.0 μg/mL, and 75 μg/mL. Standards were prepared in 1% human BALF, plasma, or mucus in 50/50 water/acetonitrile mixture containing 0.2% formic acid. The instrument response values for each set of standards were fit using a 1/(concentration)^2 linear least-squares line. Sample concentrations were calculated using the slope and intercept of this line. Concentrations outside of the calibration range were determined by extrapolating the calibration curve.
(§4) Watson fits the log transformed data with a least-squares line to determine parameters such as Cmax (maximum concentration), intercept, rate constant, slope, and T1/2 (half-life). The resulting kinetic parameters were based on the linear fit, not the actual concentration values.
(§5) Time-zero calibration standards in solution were not included as part of the kinetic profiles.

Series [2] in a line: Stability of test peptides in human plasma (LC/MS/MS, first order half-life). The format is in vitro ADME. Conditions: human plasma, 37° C. As to the method: as §1
Fresh human blood samples were collected in citrate buffered vacuutrainers (in absence of EDTA or heparin). Red blood cells (RBC) were removed by centrifugation of the blood at 4000×g for 10 min at 4° C. Plasma aliquots (0.9 mL) were then spiked with 0.1 mL of 0.5 mg/mL solution of the test peptide in 75 mM sodium acetate buffer at pH 7.0 and incubated in a water bath maintained at 37° C. Duplicate aliquots of 10 μL, were withdrawn at 5, 15, 30, 60, and 180 minutes intervals and immediately “quenched” with 990 μL of a solution consisting of 50% acetonitrile+50% water containing 0.2% formic acid. The samples were then subjected to liquid chromatography-mass spectrometry (LCMS) analysis.
as §2
as §3, with “curve. […]” for “curve.”
For the analysis of peptide concentration in plasma, duplicate calibration standards were analyzed at a concentration of 25 μg/mL and 50 μg/mL for each peptide. The instrument response values for each set of standards were fit through an intercept of 0 using an unweighted, linear least-squares line. Sample concentrations were calculated using the slope and intercept of this line. Concentrations outside of the calibration range were determined by extrapolating the calibration curve.
as §4, §5

Series [3] relates to methacholine-induced mucin hypersecretion. In words: Methacholine-induced mucin hypersecretion in ovalbumin-sensitized mouse model of asthma, BAL mucin ELISA (Balb/C mice). Format: in vivo. Conditions: for Mucin Secretion % control: Table II, peptides at 100 μM, 50 μL intratracheal 15 min before methacholine; for Mucin Secretion % of control: Table IV. Put shortly:
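BP2 or Balb/C mice immunized s.c. twice weekly with 1 μg ovalbumin, aerosol ovalbumin challenge after 14 days, then aerosolized methacholine 72 h later. Anti-MUC5AC ELISA on cell-free BAL, minus non-immune antibody signal, normalized to Bradford protein; 6 mice per group.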

Setting [4] is: 1st experiment, read-out: Mucus t1/2 (1st exp.) (converted).
Setting [5] is: 2nd experiment, read-out: Mucus t1/2 (2nd exp.) (converted).
The mark [6] stands for this setting: 2nd experiment, read-out: Plasma t1/2 (2nd exp.) (converted).

For Ac-GAQFSKTAAK-OH [Ac-peptide 106], the half-life in series [1] (setting [4]) was 33 min; in series [1] (setting [5]) it was 28.2 min; in series [2] (setting [6]), 1.8 min. Moreover, in series [3], the “Mucin Secretion % control” value is 21.5 % control.
“H-GAQFSKTAAK-OH [peptide 106, GAQFSKTAAK]”: the half-life in series [1] (setting [4]) was 13.8 min; in series [1] (setting [5]), 22.2 min; in series [2] (1st experiment, read-out: Plasma t1/2 (1st exp.) (converted)), 16.8 min; in series [2] (setting [6]), 9 min. In series [3], the “Mucin Secretion % control” value is recorded as 33.8 % control. Further, the figures for the “Mucin Secretion % of control” value in series [3] (peptide 10 μM) and in series [3] (peptide 100 μM) were 64* % of control and 40** % of control, respectively.
